Laboratory results: patent US20250163045A1, “COMPOUNDS FOR TREATMENT OF HAIR LOSS” (Pelage Pharmaceuticals, Inc., priority 2021, published 2025)

Test: Solubility of compounds in topical formulations (stirred, visual dissolution)
Assay type: physicochemical
Settings: for Solubility in Non-Aqueous Formulation: Non-Aqueous Formulation (50% PEG400, 15% Transcutol P, 25% ethanol, 10% DMSO)
From the text: Several formulations were used to evaluate the solubility of the various compounds. Although any suitable pharmaceutical formulation may be used for the compounds, formulations such as those described below are suitable for administration of the compounds to the hair or scalp of a mammal such as a human being. The formulation may be sterilized before applying to a mammal such as a human being. • A Non-Aqueous Formulation, containing 50% PEG400, 15% Transcutol® P, 25% ethanol, and 10% DMSO was manufactured using the following general process: 10 g of PEG400, 3 g of Transcutol® P, 5 g of ethanol, and 2 g of DMSO were added to a clear vial. The mixture was then stirred using a stir bar until homogenous. • Aqueous Formulation 1, containing 10% PEG400, 20% Transcutol® HP, 45% ethanol, and 25% water was manufactured using the following general process: in a large amber pyrex bottle, 1) 19.98 g of PEG400 was added; 2) 40.07 g of Transcutol® HP was added; 3) 90 g of ethanol was added; 4) 50.03 g of water was added; and 5) the mixture was stirred using a magnetic stir bar for 30 mins at 800 rpm. • Aqueous Formulation 2, containing 10% propylene glycol, 20% Transcutol® HP, 45% ethanol, and 25% water was manufactured using the following process: in a large amber pyrex bottle, 1) 10.03 g propylene glycol was added; 2) 20.03 g Transcutol® HP was added; 3) 44.99 g ethanol was added; 4) 25.02 g water was added; and 5) the mixture was stirred using a magnetic stir bar for 30 mins at 800 rpm.
The solubilities of several compounds shown below in the described formulations are indicated below.
• Aqueous Formulation 1: 0.5 mg Reference Compound and 9.9996 g Aqueous Formulation 1 (0.005% w/w) were stirred at 600 RPM for 1 hour. The Reference Compound remained undissolved in 1 hour; • Aqueous Formulation 2: 0.5 mg Reference Compound and 10.0006 g Aqueous Formulation 2 (0.005% w/w) were stirred at 600 RPM for 1 hour. […]

Row | SMILES | Solubility in Non-Aqueous Formulation (dissolved / remained undissolved in 1 hour) [% w/w] | Solubility in Non-Aqueous Formulation (remained undissolved in 24 hours) [% w/w] | Solubility in Aqueous Formulation 1 (Aqueous Formulation 1 (10% PEG400, 20% Transcutol HP, 45% ethanol, 25% water), stirred at 600 RPM for 1 hour) [% w/w]
1 | N#C/C(=C\c1cn(-c2cccc(C(F)(F)F)c2)c2ncccc12)C(=O)O [Compound 3, (E)-2-cyano-3-(1-(3-(trifluoromethyl)phenyl)-1H-pyrrolo[2,3-b]pyridin-3-yl)acrylic acid] | ≥ 0.1 | < 0.2 | 
2 | N#C/C(=C\c1cn(Cc2cc(C(F)(F)F)cc(C(F)(F)F)c2)c2ncccc12)C(=O)O [Reference Compound, (E)-3-(1-(3,5-bis(trifluoromethyl)benzyl)-1H-pyrrolo[2,3-b]pyridin-3-yl)-2-cyanoacrylic acid, reference compound] |  |  | < 0.005
